Data taken from ChEMBL document CHEMBL3988442, “University of Dundee, Small-Polar-MMV Screening Library” (2021).
Several values for one entry are separate records, joined by “and”; a condition that tells them apart may be missing. Identical values can stand only once.

Experiments:
[1] = target: Polyketide synthase Pks13 (Mycobacterium tuberculosis (strain ATCC 25618 / H37Rv), UniProt I6X8D2); test: Mycobacterium tuberculosis Polyketide synthase 13 Thioesterase (PKS13); type: functional
[2] = microbe, parasite or virus in culture; conditions: Mycobacterium tuberculosis, 72 h, read-out: pIC50 (converted)
[3] = microbe, parasite or virus in culture; conditions: Mycobacterium tuberculosis, 96 h, read-out: pIC50 (converted)

Sequence of Polyketide synthase Pks13 (I6X8D2 whole entry): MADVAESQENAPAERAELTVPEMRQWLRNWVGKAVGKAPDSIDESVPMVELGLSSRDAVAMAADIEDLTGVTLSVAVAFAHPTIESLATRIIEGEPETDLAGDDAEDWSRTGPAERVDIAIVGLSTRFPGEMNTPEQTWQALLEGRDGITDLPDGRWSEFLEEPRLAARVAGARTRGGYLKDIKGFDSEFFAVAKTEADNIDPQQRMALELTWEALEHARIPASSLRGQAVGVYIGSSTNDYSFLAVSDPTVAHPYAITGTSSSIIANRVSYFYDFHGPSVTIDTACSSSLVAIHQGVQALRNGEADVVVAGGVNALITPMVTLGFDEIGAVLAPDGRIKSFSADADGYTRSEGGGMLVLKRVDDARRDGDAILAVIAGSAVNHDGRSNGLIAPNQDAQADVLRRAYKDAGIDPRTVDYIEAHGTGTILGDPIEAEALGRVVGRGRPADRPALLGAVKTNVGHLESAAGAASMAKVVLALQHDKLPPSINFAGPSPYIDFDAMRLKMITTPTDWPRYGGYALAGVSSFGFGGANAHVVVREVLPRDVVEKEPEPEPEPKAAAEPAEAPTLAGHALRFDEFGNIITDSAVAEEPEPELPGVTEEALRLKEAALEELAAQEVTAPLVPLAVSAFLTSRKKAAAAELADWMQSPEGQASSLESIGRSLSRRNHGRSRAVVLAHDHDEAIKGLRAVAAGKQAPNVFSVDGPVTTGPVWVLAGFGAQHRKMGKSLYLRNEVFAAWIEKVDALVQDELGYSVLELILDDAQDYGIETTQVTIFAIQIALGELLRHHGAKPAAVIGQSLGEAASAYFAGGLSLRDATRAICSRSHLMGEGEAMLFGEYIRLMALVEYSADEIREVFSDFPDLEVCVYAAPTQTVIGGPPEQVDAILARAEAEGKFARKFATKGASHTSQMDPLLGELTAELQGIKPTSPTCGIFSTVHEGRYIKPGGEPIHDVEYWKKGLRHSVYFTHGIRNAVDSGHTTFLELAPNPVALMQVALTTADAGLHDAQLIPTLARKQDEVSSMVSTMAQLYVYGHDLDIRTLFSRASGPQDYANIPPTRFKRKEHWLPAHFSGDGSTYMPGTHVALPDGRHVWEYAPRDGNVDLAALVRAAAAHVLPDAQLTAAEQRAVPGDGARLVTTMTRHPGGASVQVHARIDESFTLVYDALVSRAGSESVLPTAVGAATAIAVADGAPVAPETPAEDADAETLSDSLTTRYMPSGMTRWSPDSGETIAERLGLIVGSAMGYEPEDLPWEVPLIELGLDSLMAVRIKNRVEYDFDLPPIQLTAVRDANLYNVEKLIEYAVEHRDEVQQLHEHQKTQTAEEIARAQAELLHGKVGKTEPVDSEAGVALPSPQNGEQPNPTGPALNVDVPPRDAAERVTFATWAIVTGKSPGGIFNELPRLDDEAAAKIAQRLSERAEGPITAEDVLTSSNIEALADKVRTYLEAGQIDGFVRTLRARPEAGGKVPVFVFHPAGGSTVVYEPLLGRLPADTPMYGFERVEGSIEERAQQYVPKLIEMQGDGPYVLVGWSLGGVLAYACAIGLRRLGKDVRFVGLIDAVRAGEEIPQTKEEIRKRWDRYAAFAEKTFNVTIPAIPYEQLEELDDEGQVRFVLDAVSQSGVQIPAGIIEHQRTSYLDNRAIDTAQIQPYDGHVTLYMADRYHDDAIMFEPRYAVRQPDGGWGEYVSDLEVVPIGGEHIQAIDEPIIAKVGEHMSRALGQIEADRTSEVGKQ

SMILES | IC50 [1] | IC50 [2] | IC50 [3]
Cc1nc(CNC(=O)N2CCN(c3ccc(Cl)cn3)CC2)sc1C | 42.5 µM and 31.5 µM | – | –
CCN(Cc1nc2c(cnn2C)c(=O)[nH]1)c1ccccc1 | > 100 µM | – | –
Cc1ccc(CNC(=O)NCCCn2nc3ccccn3c2=O)s1 | > 100 µM | – | –
OCC1(CCOc2ccccc2)CCCN(c2ccc(Cl)cn2)C1 (stereo not given) | 29 µM and 32.3 µM | – | –
Cc1cn2c(=O)c(-c3ccnc(N4CCC[C@@H]4CO)n3)cnc2s1 | > 100 µM | – | –
Cc1cc(C)n(-c2cncc(NCCNS(C)(=O)=O)n2)n1 | 20.9 µM and 8.18 µM | – | –
N#Cc1c(N2CCCN(C3CCOCC3)CC2)nc2ccccn12 | > 100 µM | – | –
CN(C)CC(=O)N1Cc2nc(C(=O)NCc3ccccc3)oc2C1 | > 100 µM | – | –
O=c1[nH]c2cc3c(cc2cc1CN1CCCC1c1ccccn1)OCO3 (stereo not given) | > 100 µM and 70.3 µM | – | –
CCn1cc(-c2cc(C(F)F)n3nc(CC(=O)O)nc3n2)cn1 | 15.7 µM and 16.4 µM | – | –
N#Cc1cc(C#N)c(SCC(=O)Nc2ccc(F)cc2)nc1N | 19.3 µM and 21.8 µM | – | –
Cn1nc(C2CCCN2)c2c(C(=O)NCC(F)(F)F)cc(C3CC3)nc21 (stereo not given) | > 100 µM | – | –
CCOc1cc(C(=O)n2cc(C)cn2)cc(OCC)c1OCC | 19.9 µM and 11.2 µM | 29.7 µM | > 50.1 µM
NC(=O)N1CCCN(CCc2nc(-c3cccc(Cl)c3)no2)CC1 | > 100 µM | – | –
CCOCCN1Cc2ncn(C)c2C(COCC2CCOCC2)C1 (stereo not given) | > 100 µM | – | –
O=C(c1cnccn1)N1C[C@@H]2CC[C@H](C1)N(S(=O)(=O)c1cccnc1)C2 | > 100 µM | – | –
Cc1ccc(C(=O)N2CCC3(CC2)c2ccccc2[C@@H](N)[C@@H]3O)c(=O)[nH]1 | > 100 µM | – | –
O=C1CCCN1Cc1ncn2c1CN(C(=O)NC1CCCC1)CCC2 | > 100 µM | – | –
COc1cccc(CN2CCC3(COCc4cnc(N(C)C)nc43)C2)c1 (stereo not given) | > 100 µM | > 50.1 µM | > 50.1 µM
CC(NC(=O)N1CCC(CO)CC1)c1csc2ccccc12 (stereo not given) | > 100 µM | – | –
O=C(O)C1c2nc[nH]c2CCN1Cc1ccccc1-c1ccccc1 (stereo not given) | > 100 µM | – | –
CC(NC(=O)NCC(C)(C)C(N)=O)c1nc(-c2ccccc2)cs1 (stereo not given) | > 100 µM | – | –
O=C(c1ccco1)N1CCO[C@@H]2CN(c3ccccn3)CC[C@@H]2C1 | > 100 µM | – | –
COC(=O)c1sc2cccc(F)c2c1CNC(=O)C1CCOC1 (stereo not given) | > 100 µM | – | –
O=C1CC(NCc2cnc(N3CCCC3)nc2)CN1c1ccccc1 (stereo not given) | > 100 µM | – | –
CSCc1ccc(N2CCC(C(O)Cc3ccccc3)CC2)nc1 (stereo not given) | > 100 µM | – | –

SMILES | IC50 [1] | IC50 [2] | IC50 [3]
COc1ccc2nc(C[C@@H]3C[C@@H](C(C)C)[C@H](CN)C=C3C)[nH]c2n1 | > 100 µM | – | –
c1cnc(N2CCC3(CCCN(CC4CCCCC4)C3)C2)cn1 (stereo not given) | > 100 µM | – | –
Cc1ccc2cc(CNCCCN3CCOCC3)c(=O)[nH]c2c1C | > 100 µM | – | –
COc1cc2nc(NCc3cc(C)on3)nc(N)c2cc1OC | > 100 µM and 89.5 µM | – | –
c1csc(-c2noc(CCCN3CCCC3Cn3cncn3)n2)c1 (stereo not given) | > 100 µM | – | –
COCc1nc(C(=O)N2CCCC2c2ccc(OC)cc2)cs1 (stereo not given) | > 100 µM | – | –
O=C(CCc1cc(Cl)no1)N1CCC(c2cc3ncccc3cn2)CC1 | > 100 µM | – | –
Cc1c(C(=O)N2CCOCC2)nnn1-c1ccc2ncccc2c1 | > 100 µM | – | –
N#Cc1cccc(N2CCCC(CO)(CCOc3ccccc3)C2)n1 (stereo not given) | 34.6 µM and 6.67 µM | – | –
Cn1ccc(C(=O)NC2CCN(c3ncccn3)CC2)cc1=O | > 100 µM | – | –
CS(=O)(=O)N1CCCC1c1cccc(Cc2ccccc2F)n1 (stereo not given) | > 100 µM | – | –
CC1(C)Cc2ccccc2-c2nc(NCCCO)[nH]c(=O)c21 | 28.6 µM and 27.1 µM | – | –
O=C(c1ccc(-n2cc(Br)cn2)cc1)N1CCN(c2cnccn2)CC1 | 2.63 µM and 3.37 µM | – | –
Cc1cnn(CC(C)NCC(=O)NCCOc2ccccc2)c1 (stereo not given) | > 100 µM | – | –
Cc1nc(-c2ccc(Cl)s2)sc1C(=O)N(C)CC(N)=O | 30.9 µM and 43.8 µM | – | –
CC(C)(C)OCCN1CCCC1c1nc(Cc2ccc(F)cc2)no1 (stereo not given) | > 100 µM | – | –
Cc1cc2c(N)nc(=O)n(CC(=O)Nc3ccccc3)c2s1 | > 100 µM | – | –
CCc1ccc(S(=O)(=O)NCC2CCN(c3cnccn3)CC2)s1 | 18.4 µM and 29.5 µM | – | –
Cc1cccc(-n2nnnc2C(C)(C)Nc2ccccc2C)c1 | 13.8 µM and 11.7 µM | – | –
Cc1cc(-c2cnn(CCNC(=O)c3snnc3C)c2C2CC2)on1 | > 100 µM | – | –
CC1(C(=O)NCc2cccnc2Oc2ccc(F)c(F)c2)CCCNC1 (stereo not given) | > 100 µM | – | –
Cc1cc(C)n(-c2cncc(NCCC(=O)NC(C)C)n2)n1 | 24.1 µM and 15.2 µM | – | –
CCN1CCC(N[C@@H]2CC[C@@H]2NC(=O)Cc2csc(C)n2)CC1 | > 100 µM | – | –
CC1(NC(=O)Cc2csc(NC(=O)c3ccccc3)n2)CCS(=O)(=O)C1 (stereo not given) | > 100 µM | – | –
CCOC(=O)CNC(=O)NCc1cc(C)n(-c2ccccc2OC)c1C | > 100 µM | – | –
